Source: patent US7094909B2, “HIV protease inhibitors, compositions containing the same, their pharmaceutical uses and materials for their synthesis” (priority 2001, dated 2006)

What follows are compounds tested against T1, HIV-1 protease (Q7S mutant form) (Human immunodeficiency virus type 1 group M subtype B, UniProt P04585, Q495S) (assay: HIV-1 Protease RET assay). Settings: Ave. Ki (nM), RET assay, Q7S enzyme, Morrison tight binding fit.
T1 construct: made in house
Format: biochemical
Procedure: Ki's for the inhibitors of HIV-1 protease were determined using a resonance energy transfer (RET) assay. […] This enzyme is first partially purified as inclusion bodies from cell lysate. It is then solublized in 8M urea and passed through a Q-Sepharose column (Pharmacia) for further purification. To refold this protein, samples containing Q7S is dialyzed into 50 mM sodium phosphate pH 7.0, 50 mM NaCl, 10 mM DTT, and 10% glycerol.
The commercially available peptide substrate (Molecular Probes Cat. # H-2930) RE(EDANS)SQNYPIVQK(DABCYL)R is used to assess activity and Ki's. This peptide is cleaved quantitatively by HIV-1 Pr at the Tyr-Pro bond. The EDANS fluorophore absorbs at 340 nm and emits at 490 nm. The reaction is carried out in a 96 well plate in a total volume of 100 µL and is run for 12 minutes at 37 C under steady-state conditions with 5 µM substrate and 2 nM active dimer enzyme concentration. The literature value Km for this substrate and enzyme is 103+/−8 µM (See Matayoshi, et al., “Novel Fluorogenic Substrates for Assaying Retroviral Proteases by Resonance Energy Transfer,” Science 247, 954 (1990)). The buffer for this reaction is 0.1M sodium acetate pH 4.8, 1M NaCl, 1 mM EDTA, 5 mM dithiothreitol, 10% dimethyl sulfoxide and 1 mg/ml bovine serum albumin. Inhibition curves are fit using the Morrison tight binding equation.
With Cc1ccc(CNC(=O)NC(Cc2ccccc2)C(O)C(=O)N2CSC(C)(C)[C@H]2C(=O)NCc2ccccc2C)c(C)c1 (stereo in doubt) [Example B69, 3-{3-[3-(2,4-Dimethyl-benzyl)-ureido]-2-hydroxy-4-phenyl-butyryl}-5,5-dimethyl-thiazolidine-4-carboxylic acid 2-methyl-benzylamide] the Ki was 7.7 nM. Work on CC(C)=CCNC(=O)[C@@H]1CC(F)(F)CN1C(=O)[C@@H](O)[C@H](Cc1ccccc1)NC(=O)c1cccc(O)c1C [Example C9, (S)-4,4-Difluoro-1-((2S,3S)-2-hydroxy-3-{[1-(3-hydroxy-2-methyl-phenyl)-methanoyl]-amino}-4-phenyl-butanoyl)-pyrrolidine-2-carboxylic acid (3-methyl-but-2-enyl)-amide] yielded a Ki of 6.3 nM. For Cc1ccccc1CNC(=O)[C@@H]1C[C@@H]2CCCC[C@@H]2CN1C(=O)[C@@H](O)[C@H](Cc1ccccc1)NC(=O)c1cccc(O)c1C [Example C49, (3S,4aS,8aS)-2-((2S,3S)-2-Hydroxy-3-{[1-(3-hydroxy-2-methyl-phenyl)-methanoyl]-amino}-4-phenyl-butanoyl)-decahydro-isoquinoline-3-carboxylic acid 2-methyl-benzylamide], the Ki was 150 nM. For CC1(C)SCN(C(=O)[C@@H](O)[C@H](Cc2ccccc2)NC(=O)NCc2ccccc2)[C@@H]1C(=O)NCc1ccccc1 [Example B61, 3-[(2S,3S)-3-(3-Benzyl-ureido)-2-hydroxy-4-phenyl-butyryl]-5,5-dimethyl-thiazolidine-4-carboxylic acid benzylamide], the Ki was 16.9 nM. CC1(C)SCN(C(=O)[C@@H](O)[C@H](Cc2ccccc2)NC(=O)NCc2c(F)cccc2F)[C@@H]1C(=O)NCc1c(F)cccc1F [Example B49] was tested, and the Ki was 120 nM. Work on Cc1ccccc1CNC(=O)[C@H]1N(C(=O)C(O)C(Cc2ccccc2)NC(=O)NCc2ccccc2Br)CSC1(C)C (stereo in doubt) [Example B72, 3-{3-[3-(2-Bromo-benzyl)ureido]-2-hydroxy-4-phenyl-butyryl}-5,5-dimethyl-thiazolidine-4-carboxylic acid 2-methyl-benzylamide] yielded a Ki of 6.6 nM. In the case of COc1ccc(CNC(=O)N[C@@H](Cc2ccccc2)[C@H](O)C(=O)N2CSC(C)(C)[C@H]2C(=O)NCc2ccccc2C)cc1OC [Example B74, (R)-3-{(2S,3S)-3-[3-(3,4Dimethoxy-benzyl)ureido]-2-hydroxy-4-phenyl-butyryl}-5,5-dimethyl-thiazolidine-4-carboxylic acid 2-methyl-benzylamide], the Ki is reported as 39 nM. With COc1ccc(CNC(=O)NC(Cc2ccccc2)C(O)C(=O)N2CSC(C)(C)[C@H]2C(=O)NCc2ccc(OC)cc2)cc1 (stereo partly drawn) [Example B63, 33-{(2S,3S)-2-Hydroxy-3-[3-(4-methoxy-benzyl)-ureido]-4-phenyl-butanoyl}-5,5-dimethyl-thiazolidine-4-carboxylic acid 4-methoxy-benzylamide] the Ki was 7.8 nM. For C=CCOC(=O)N[C@@H](Cc1ccccc1)[C@H](O)C(=O)N1CSC(C)(C)[C@H]1C(=O)NCc1c(F)cccc1F [Example B50, {(1S,2S)-1-Benzyl-3-[(R)-4-(2,6-difluoro-benzylcarbamoyl)-5,5-dimethyl-thiazolidin-3-yl]-2-hydroxy-3-oxo-propyl}-carbamic acid allyl ester], the Ki was 7.4 nM. Work on Cc1ccccc1CNC(=O)[C@H]1N(C(=O)[C@@H](O)[C@H](Cc2ccccc2)NC(=O)Nc2cccc(F)c2)CSC1(C)C [Example B55, 3-{(2S,3S)-3-[3-(3-Fluoro-phenyl)-ureido]-2-hydroxy-4-phenyl-butyryl}-5,5-dimethyl-thiazolidine-4-carboxylic acid 2-methyl-benzylamide] yielded a Ki of 679 nM. CC1(C)SCN(C(=O)[C@@H](O)[C@H](Cc2ccccc2)NC(=O)NCc2ccccc2C(F)(F)F)[C@@H]1C(=O)NCc1ccccc1C(F)(F)F [Example B52, 3-{(2S,3S)-2-Hydroxy-4-phenyl-3-[3-(2-trifluoromethyl-benzyl)-ureido]-butyryl}-5,5-dimethyl-thiazolidine-4-carboxylic acid 2-trifluoromethyl-benzylamide] showed a Ki of 120 nM.

Same assay, conditions: Ki, unit inferred
Compound C=CC(CC)OC(=O)N[C@@H](Cc1ccccc1)[C@H](O)C(=O)N1CSC(C)(C)[C@H]1C(=O)NCc1ccccc1C (stereo partly shown) has a Ki of 92 nM. CC1(C)SCN(C(=O)[C@@H](O)[C@H](Cc2ccccc2)NC(=O)c2cccc3c2CCN3)[C@@H]1C(=O)NCc1cccs1 showed a Ki of 6.8 nM. With Cc1ccccc1CNC(=O)[C@H]1N(C(=O)[C@@H](O)[C@H](Cc2ccccc2)NC(=O)C(C)(C)CN)CSC1(C)C the Ki was 18.7 nM. Cc1ccccc1CNC(=O)[C@H]1N(C(=O)[C@@H](O)[C@H](Cc2ccccc2)NC(=O)CNC(=O)OC(C)(C)C)CSC1(C)C showed a Ki of 88 nM. Compound Cc1ccccc1CNC(=O)[C@@H]1N(C(=O)[C@@H](O)[C@H](Cc2ccccc2)NC(=O)c2cccc(O)c2C)CSC12CCCCC2 has a Ki of 11 nM. In the case of Cc1ccccc1CNC(=O)[C@@H]1CSCN1C(=O)[C@@H](O)[C@H](Cc1ccccc1)NC(=O)CCc1c(C)cccc1C, the Ki is reported as 20 nM. Cc1ccccc1CNC(=O)[C@@H]1N(C(=O)[C@@H](O)[C@H](Cc2ccccc2)NC(=O)c2cccc(O)c2C)CSC12CCC2 was tested, and the Ki was 30 nM. Work on Cc1ccccc1CNC(=O)[C@H]1N(C(=O)[C@@H](O)[C@H](Cc2ccccc2)NC(=O)Oc2ccccc2)CSC1(C)C yielded a Ki of 368 nM. In the case of CC(C)(C)OC(=O)N[C@@H](Cc1ccccc1)[C@H](O)C(=O)N1CSC(C)(C)C1C(=O)NCc1ccccc1Cl (stereo partly shown), the Ki is reported as 20 nM. CC1(C)SCN(C(=O)[C@@H](O)[C@H](Cc2ccccc2)NC(=O)[C@@H]2CCCO2)[C@@H]1C(=O)NC[C@H]1CCCO1 was tested, and the Ki was 30 nM. For CC1(C)SCN(C(=O)[C@@H](O)[C@H](Cc2ccccc2)NC(=O)NCc2ccccc2Cl)C1C(=O)NCc1ccccc1Cl (stereo partly shown) [drawing 953], the Ki was 74 nM. Cc1ccccc1CCC(=O)C1N(C(=O)[C@@H](O)C(Cc2ccccc2)NC(=O)NCc2ccc(Cl)cc2)CSC1(C)C (stereo partly shown) gave a Ki of 8.2 nM. Compound CC(C)(C)OC(=O)N[C@@H](Cc1ccccc1)[C@H](O)C(=O)N1CSC(C)(C)C1C(=O)NCc1c(F)cccc1F (stereo partly shown) has a Ki of 54 nM. C/C(=C/c1ccccc1)C(=O)N[C@@H](Cc1ccccc1)[C@H](O)C(=O)N1CSC(C)(C)[C@H]1C(=O)NCc1ccccc1C showed a Ki of 5 nM. Cc1ccccc1CNC(=O)[C@H]1N(C(=O)[C@@H](O)[C@H](Cc2ccccc2)NC(=O)COc2cc(N(C)C)ccc2C)CSC1(C)C showed a Ki of 8.1 nM. Compound COc1cccc(CNC(=O)[C@H]2N(C(=O)[C@@H](O)[C@H](Cc3ccccc3)NC(=O)C=C(C)C)CSC2(C)C)c1 has a Ki of 125 nM. Cc1c(O)cccc1C(=O)N[C@@H](Cc1ccccc1)[C@H](O)C(=O)N1CSC2(CCC2)[C@@H]1C(=O)N[C@@H]1C=CCCC1 was tested, and the Ki was 12.9 nM. In the case of Cc1ccccc1CNC(=O)[C@H]1N(C(=O)[C@@H](O)[C@H](Cc2ccccc2)NC(=O)COc2cccnc2C)CSC1(C)C, the Ki is reported as 17 nM. For Cc1ccccc1CNC(=O)[C@H]1N(C(=O)[C@@H](O)[C@H](Cc2ccccc2)NC(=O)CC(C)NC(=O)OC(C)(C)C)CSC1(C)C (stereo partly shown), the Ki was 122 nM. Compound Cc1ccccc1CNC(=O)[C@@H]1CC(F)(F)CN1C(=O)[C@@H](O)[C@H](Cc1ccccc1)NC(=O)c1cccn1C has a Ki of 59 nM. Cc1ccccc1CNC(=O)[C@H]1N(C(=O)[C@@H](O)[C@H](Cc2ccccc2)NC(=O)/C=C/c2c(C)cccc2C)CSC1(C)C gave a Ki of 99 nM. In the case of COc1ccc(CNC(=O)C2N(C(=O)[C@@H](O)[C@H](Cc3ccccc3)NC(=O)OC(C)(C)C)CSC2(C)C)cc1 (stereo partly shown), the Ki is reported as 25 nM. Cc1c(O)cccc1C(=O)N[C@@H](Cc1ccccc1)[C@H](O)C(=O)N1CSC(C)(C)[C@H]1C(=O)NCc1cc(Cl)nc(Cl)c1 gave a Ki of 47 nM.
